Measurements: ChEMBL document CHEMBL1128025, “Synthesis and evaluation of pyridyl analogs of L-735,524: Potent HIV-1 protease inhibitors” (Bioorg Med Chem Lett, 1994)

Tested on: Human immunodeficiency virus
Assay: Compound was tested for cellulr inhibition of HIV was determined; Range is 6-12
Type: functional
Settings: Human immunodeficiency virus 1

Row | SMILES | IC95 [nM]
1 | CC(C)(C)NC(=O)[C@@H]1CN(Cc2cc3sccc3s2)CCN1C[C@@H](O)C[C@@H](Cc1cccnc1)C(=O)N[C@H]1c2ccccc2C[C@H]1O | 12
2 | CC(C)(C)NC(=O)[C@@H]1CN(Cc2cc3ccsc3s2)CCN1C[C@@H](O)C[C@@H](Cc1ccncc1)C(=O)N[C@H]1c2ccccc2C[C@H]1O | 12
3 | CC(C)(C)NC(=O)[C@@H]1CN(Cc2cc3ccsc3s2)CCN1C[C@@H](O)C[C@@H](Cc1cccnc1)C(=O)N[C@H]1c2ccccc2C[C@H]1O | 12
4 | CC(C)(C)NC(=O)[C@@H]1CN(Cc2cc3sccc3s2)CCN1C[C@@H](O)C[C@@H](Cc1ccncc1)C(=O)N[C@H]1c2ccccc2C[C@H]1O | 12

Tested on: Human immunodeficiency virus
Assay: Compound was tested for cellulr inhibition of HIV was determined
Type: functional
Settings: Human immunodeficiency virus 1

Row | SMILES | IC95 [nM]
5 | CC(C)(C)NC(=O)[C@@H]1CN(Cc2cccnc2)CCN1C[C@@H](O)C[C@@H](Cc1ccncc1)C(=O)N[C@H]1c2ccccc2C[C@H]1O | > 200
6 | CC(C)(C)NC(=O)[C@@H]1CN(Cc2cccnc2)CCN1C[C@@H](O)C[C@@H](Cc1cccnc1)C(=O)N[C@H]1c2ccccc2C[C@H]1O | > 200
7 | CC(C)(C)NC(=O)[C@@H]1CN(Cc2c(F)cccc2F)CCN1C[C@@H](O)C[C@@H](Cc1cccnc1)C(=O)N[C@H]1c2ccccc2C[C@H]1O | 12.2
8 | CC(C)(C)NC(=O)[C@@H]1CN(Cc2cc(Br)cs2)CCN1C[C@@H](O)C[C@@H](Cc1cccnc1)C(=O)N[C@H]1c2ccccc2C[C@H]1O | 25
9 | CC(C)(C)NC(=O)[C@@H]1CN(S(=O)(=O)c2cccc3cccnc23)CCN1C[C@@H](O)C[C@@H](Cc1ccncc1)C(=O)N[C@H]1c2ccccc2C[C@H]1O | 200
10 | CC(C)(C)NC(=O)[C@@H]1CN(S(=O)(=O)c2cccc3cccnc23)CCN1C[C@@H](O)C[C@@H](Cc1cccnc1)C(=O)N[C@H]1c2ccccc2C[C@H]1O | > 200
11 | CC(C)(C)NC(=O)[C@@H]1CN(Cc2cccnc2)CCN1C[C@@H](O)C[C@@H](Cc1ccccc1)C(=O)N[C@H]1c2ccccc2C[C@H]1O [INDINAVIR] | 50

Tested on: Human immunodeficiency virus
Assay: Compound was tested for cellulr inhibition of HIV was determined; Range is 12-25
Type: functional
Settings: Human immunodeficiency virus 1

Row | SMILES | IC95 [nM]
12 | CC(C)(C)NC(=O)[C@@H]1CN(Cc2cc(Br)cs2)CCN1C[C@@H](O)C[C@@H](Cc1ccncc1)C(=O)N[C@H]1c2ccccc2C[C@H]1O | 25

Tested on: not listed separately
Assay: Concentration maxima after oral dosing in dogs
Type: ADME, organism-based, Canis lupus familiaris
Design: route oral
Settings: dog, in vivo

Row | SMILES | Cmax [nM]
13 | CC(C)(C)NC(=O)[C@@H]1CN(Cc2cccnc2)CCN1C[C@@H](O)C[C@@H](Cc1ccncc1)C(=O)N[C@H]1c2ccccc2C[C@H]1O | 414
14 | CC(C)(C)NC(=O)[C@@H]1CN(Cc2cc3sccc3s2)CCN1C[C@@H](O)C[C@@H](Cc1cccnc1)C(=O)N[C@H]1c2ccccc2C[C@H]1O | 3290
15 | CC(C)(C)NC(=O)[C@@H]1CN(Cc2c(F)cccc2F)CCN1C[C@@H](O)C[C@@H](Cc1cccnc1)C(=O)N[C@H]1c2ccccc2C[C@H]1O | 1010
16 | CC(C)(C)NC(=O)[C@@H]1CN(Cc2cc(Br)cs2)CCN1C[C@@H](O)C[C@@H](Cc1ccncc1)C(=O)N[C@H]1c2ccccc2C[C@H]1O | 2200
17 | CC(C)(C)NC(=O)[C@@H]1CN(Cc2c(F)cccc2F)CCN1C[C@@H](O)C[C@@H](Cc1ccncc1)C(=O)N[C@H]1c2ccccc2C[C@H]1O | 8060
18 | CC(C)(C)NC(=O)[C@@H]1CN(Cc2cc(Br)cs2)CCN1C[C@@H](O)C[C@@H](Cc1cccnc1)C(=O)N[C@H]1c2ccccc2C[C@H]1O | 633
19 | CC(C)(C)NC(=O)[C@@H]1CN(Cc2cc3ccsc3s2)CCN1C[C@@H](O)C[C@@H](Cc1ccncc1)C(=O)N[C@H]1c2ccccc2C[C@H]1O | 1730
20 | CC(C)(C)NC(=O)[C@@H]1CN(Cc2cc3ccsc3s2)CCN1C[C@@H](O)C[C@@H](Cc1cccnc1)C(=O)N[C@H]1c2ccccc2C[C@H]1O | 7290
21 | CC(C)(C)NC(=O)[C@@H]1CN(Cc2cc3sccc3s2)CCN1C[C@@H](O)C[C@@H](Cc1ccncc1)C(=O)N[C@H]1c2ccccc2C[C@H]1O | 1590

Tested on: Human immunodeficiency virus
Assay: Compound was tested for cellulr inhibition of HIV was determined; Range is 25-50
Type: functional
Settings: Human immunodeficiency virus 1

Row | SMILES | IC95 [nM]
22 | CC(C)(C)NC(=O)[C@@H]1CN(Cc2c(F)cccc2F)CCN1C[C@@H](O)C[C@@H](Cc1ccncc1)C(=O)N[C@H]1c2ccccc2C[C@H]1O | 50

Target: Human immunodeficiency virus type 1 protease (Human immunodeficiency virus 1, UniProt Q72874)
Assay: Inhibition of Human Immunodeficiency virus-1 protease
Settings: not given

Row | SMILES | IC50 [nM]
23 | CC(C)(C)NC(=O)[C@@H]1CN(Cc2cccnc2)CCN1C[C@@H](O)C[C@@H](Cc1ccncc1)C(=O)N[C@H]1c2ccccc2C[C@H]1O | 1.7
24 | CC(C)(C)NC(=O)[C@@H]1CN(Cc2cc3sccc3s2)CCN1C[C@@H](O)C[C@@H](Cc1cccnc1)C(=O)N[C@H]1c2ccccc2C[C@H]1O | 0.09
25 | CC(C)(C)NC(=O)[C@@H]1CN(Cc2cccnc2)CCN1C[C@@H](O)C[C@@H](Cc1cccnc1)C(=O)N[C@H]1c2ccccc2C[C@H]1O | 1.7
26 | CC(C)(C)NC(=O)[C@@H]1CN(Cc2c(F)cccc2F)CCN1C[C@@H](O)C[C@@H](Cc1cccnc1)C(=O)N[C@H]1c2ccccc2C[C@H]1O | 0.14
27 | CC(C)(C)NC(=O)[C@@H]1CN(Cc2cc(Br)cs2)CCN1C[C@@H](O)C[C@@H](Cc1ccncc1)C(=O)N[C@H]1c2ccccc2C[C@H]1O | 0.11
28 | CC(C)(C)NC(=O)[C@@H]1CN(Cc2c(F)cccc2F)CCN1C[C@@H](O)C[C@@H](Cc1ccncc1)C(=O)N[C@H]1c2ccccc2C[C@H]1O | 0.48
29 | CC(C)(C)NC(=O)[C@@H]1CN(Cc2cc(Br)cs2)CCN1C[C@@H](O)C[C@@H](Cc1cccnc1)C(=O)N[C@H]1c2ccccc2C[C@H]1O | 0.03
30 | CC(C)(C)NC(=O)[C@@H]1CN(S(=O)(=O)c2cccc3cccnc23)CCN1C[C@@H](O)C[C@@H](Cc1ccncc1)C(=O)N[C@H]1c2ccccc2C[C@H]1O | 0.015
31 | CC(C)(C)NC(=O)[C@@H]1CN(Cc2cc3ccsc3s2)CCN1C[C@@H](O)C[C@@H](Cc1ccncc1)C(=O)N[C@H]1c2ccccc2C[C@H]1O | 0.06
32 | CC(C)(C)NC(=O)[C@@H]1CN(S(=O)(=O)c2cccc3cccnc23)CCN1C[C@@H](O)C[C@@H](Cc1cccnc1)C(=O)N[C@H]1c2ccccc2C[C@H]1O | 0.03
33 | CC(C)(C)NC(=O)[C@@H]1CN(Cc2cc3ccsc3s2)CCN1C[C@@H](O)C[C@@H](Cc1cccnc1)C(=O)N[C@H]1c2ccccc2C[C@H]1O | 0.12
34 | CC(C)(C)NC(=O)[C@@H]1CN(Cc2cc3sccc3s2)CCN1C[C@@H](O)C[C@@H](Cc1ccncc1)C(=O)N[C@H]1c2ccccc2C[C@H]1O | 0.05
